The values below come from patent publication US9802927B2, “Oxadiazine compounds and methods of use thereof” (Denali Therapeutics, Inc., priority 2015, dated 2017).

The first assay concerns Aβ42. Nature of the assay: In vitro cell screening assay in H4 cells expressing human APP751: Aβ42 by sandwich ELISA. It is filed as cell-based. The settings on record: Homo sapiens, compounds 0.003-10 μM, incubated overnight (16-18 h), sandwich ELISA of supernatant. Put shortly:
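H4 neuroglioma cells stably expressing wild-type human APP751, switched to Pro293 medium and treated with compounds (0.003-10 μM, 0.33% DMSO) for 16-18 h at 37 °C. Supernatant Aβ42 quantified by sandwich ELISA (C-terminal capture, 4G8-HRP detection, A450); EC50 by sigmoidal fit normalized to DMSO and DAPT controls.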
For orientation: In an ELISA, binding on a coated surface is turned into a signal by an enzyme label.
Broadly, the EC50 is the midpoint of the concentration-response curve. `COc1nc(C2=NOCC(c3cn(C)c4cccc(C#N)c34)N2)ccc1-n1cnc(C)c1` (single isomer, unassigned; (+)) [Example 247A, (+)-3-(3-(6-methoxy-5-(4-methyl-1H-imidazol-1-yl)pyridin-2-yl)-5,6-dihydro-4H-1,2,4-oxadiazin-5-yl)-1-methyl-1H-indole-4-carbonitrile] returned a concentration for a half-maximal effect (EC50) of 47.1 nM.
The same measure, in the same setting: with `COc1cc(Cl)c2c(C3CON=C(c4ccc(-n5cnc(C)c5)c(OC)n4)N3)cn(C)c2c1` (single isomer, unassigned; (+)) [Example 261A, (+)-5-(4-chloro-6-methoxy-1-methyl-1H-indol-3-yl)-3-(6-methoxy-5-(4-methyl-1H-imidazol-1-yl)pyridin-2-yl)-5,6-dihydro-4H-1,2,4-oxadiazine] the figure was 38.7 nM.

Still in this assay, the particulars now being: compounds 0.003-10 μM, incubated overnight (16-18 h), sandwich ELISA of supernatant.
`COc1nc(C2=NOCC(c3cc4ccc(C5CC5)cc4o3)N2)ccc1-n1cnc(C)c1` (single isomer, unassigned; (+)) [Example 236B, (+)-5-(6-cyclopropylbenzofuran-2-yl)-3-(6-methoxy-5-(4-methyl-1H-imidazol-1-yl)pyridin-2-yl)-5,6-dihydro-4H-1,2,4-oxadiazine] displayed a concentration giving a half-maximal response (EC50) of 9.2 nM.
Same read-out and setting: to `COc1nc(C2=NOCC(c3cn(C)c4ccc(Cl)c(F)c34)N2)ccc1-n1cnc(C)c1` (single isomer, unassigned; (+)) [Example 237A, (+)-5-(5-chloro-4-fluoro-1-methyl-1H-indol-3-yl)-3-(6-methoxy-5-(4-methyl-1H-imidazol-1-yl)pyridin-2-yl)-5,6-dihydro-4H-1,2,4-oxadiazine] belongs 5 nM; to `COc1nc(C2=NOCC(c3ccc4nc(C)sc4c3)N2)ccc1-n1cnc(C)c1` (single isomer, unassigned; (+)) [Example 238B, (+)-3-(6-methoxy-5-(4-methyl-1H-imidazol-1-yl)pyridin-2-yl)-5-(2-methylbenzo[d]thiazol-6-yl)-5,6-dihydro-4H-1,2,4-oxadiazine], 113 nM.
With `COc1nc(C2=NOCC(c3ccc(Cl)c(C4CC4)c3)N2)ccc1-n1cnc(C)c1` (single isomer, unassigned; (+)) [Example 239B, (+)-5-(4-chloro-3-cyclopropylphenyl)-3-(6-methoxy-5-(4-methyl-1H-imidazol-1-yl)pyridin-2-yl)-5,6-dihydro-4H-1,2,4-oxadiazine], the EC50 was 13.1 nM.
The same measure, in the same setting: with `COc1nc(C2=NOCC(c3ccc4scnc4c3)N2)ccc1-n1cnc(C)c1` (single isomer, unassigned; (+)) [Example 240B, (+)-5-(benzo[d]thiazol-5-yl)-3-(6-methoxy-5-(4-methyl-1H-imidazol-1-yl)pyridin-2-yl)-5,6-dihydro-4H-1,2,4-oxadiazine] the figure was 109 nM; with `COc1nc(C2=NOCC(c3nn(C)c4ccc(C(F)(F)F)cc34)N2)ccc1-n1cnc(C)c1` (single isomer, unassigned; (+)) [Example 241B, (+)-3-(6-methoxy-5-(4-methyl-1H-imidazol-1-yl)pyridin-2-yl)-5-(1-methyl-5-(trifluoromethyl)-1H-indazol-3-yl)-5,6-dihydro-4H-1,2,4-oxadiazine], 5.1 nM.
Still for that read-out and setting: with `COc1nc(C2=NOCC(c3cccc(OC(F)(F)F)c3)N2)ccc1-n1cnc(C)c1` (single isomer, unassigned; (+)) [Example 242B, (+)-3-(6-methoxy-5-(4-methyl-1H-imidazol-1-yl)pyridin-2-yl)-5-(3-(trifluoromethoxy)phenyl)-5,6-dihydro-4H-1,2,4-oxadiazine] the figure was 18.5 nM; with `COc1nc(C2=NOCC(c3ccc(C4CC4)c(Cl)c3)N2)ccc1-n1cnc(C)c1` (single isomer, unassigned; (+)) [Example 243B, (+)-5-(3-chloro-4-cyclopropylphenyl)-3-(6-methoxy-5-(4-methyl-1H-imidazol-1-yl)pyridin-2-yl)-5,6-dihydro-4H-1,2,4-oxadiazine], 13.2 nM; with `COc1nc(C2=NOCC(c3cccc(Cl)c3)N2)ccc1-n1cnc(C)c1` (single isomer, unassigned; (+)) [Example 244B, (+)-5-(3-chlorophenyl)-3-(6-methoxy-5-(4-methyl-1H-imidazol-1-yl)pyridin-2-yl)-5,6-dihydro-4H-1,2,4-oxadiazine], 26.3 nM.
Same read-out and setting: to `COc1nc(C2=NOCC(c3cn(C)c4ccc(C#N)cc34)N2)ccc1-n1cnc(C)c1` (single isomer, unassigned; (+)) [Example 245B, (+)-3-(3-(6-methoxy-5-(4-methyl-1H-imidazol-1-yl)pyridin-2-yl)-5,6-dihydro-4H-1,2,4-oxadiazin-5-yl)-1-methyl-1H-indole-5-carbonitrile] belongs 18.5 nM; to `COc1nc(C2=NOCC(C3Cc4ccccc4C3)N2)ccc1-n1cnc(C)c1` (single isomer, unassigned; (+)) [Example 246B, (+)-5-(2,3-dihydro-1H-inden-2-yl)-3-(6-methoxy-5-(4-methyl-1H-imidazol-1-yl)pyridin-2-yl)-5,6-dihydro-4H-1,2,4-oxadiazine], 25.7 nM.
`COc1nc(C2=NOCC(c3ccc4c(c3)CCC4)N2)ccc1-n1cnc(C)c1` (single isomer, unassigned; (+)) [Example 248B, (+)-5-(2,3-dihydro-1H-inden-5-yl)-3-(6-methoxy-5-(4-methyl-1H-imidazol-1-yl)pyridin-2-yl)-5,6-dihydro-4H-1,2,4-oxadiazine]: it took 10.1 nM to reach a half-maximal effect (EC50).
As to `COc1nc(C2=NOCC(c3cn(C)c4cc(C#N)ccc34)N2)ccc1-n1cnc(C)c1` (single isomer, unassigned; (+)) [Example 249B, (+)-3-(3-(6-methoxy-5-(4-methyl-1H-imidazol-1-yl)pyridin-2-yl)-5,6-dihydro-4H-1,2,4-oxadiazin-5-yl)-1-methyl-1H-indole-6-carbonitrile], the half-maximal effective concentration (EC50) was found to be 30.2 nM.
Same read-out and setting: with `COc1ccc2c(c1)c(C1CON=C(c3ccc(-n4cnc(C)c4)c(OC)n3)N1)cn2C` (single isomer, unassigned; (+)) [Example 250B, (+)-5-(5-methoxy-1-methyl-1H-indol-3-yl)-3-(6-methoxy-5-(4-methyl-1H-imidazol-1-yl)pyridin-2-yl)-5,6-dihydro-4H-1,2,4-oxadiazine] the figure was 15.8 nM.
The same measure, in the same setting: to `COc1nc(C2=NOCC(c3cn(C)c4cccc(OC)c34)N2)ccc1-n1cnc(C)c1` (single isomer, unassigned; (+)) [Example 252B, (+)-5-(4-methoxy-1-methyl-1H-indol-3-yl)-3-(6-methoxy-5-(4-methyl-1H-imidazol-1-yl)pyridin-2-yl)-5,6-dihydro-4H-1,2,4-oxadiazine] belongs 36.3 nM; to `COc1nc(C2=NOCC(c3cn(C)c4cc(Cl)cc(OC)c34)N2)ccc1-n1cnc(C)c1` (single isomer, unassigned; (+)) [Example 254B, (+)-5-(6-chloro-4-methoxy-1-methyl-1H-indol-3-yl)-3-(6-methoxy-5-(4-methyl-1H-imidazol-1-yl)pyridin-2-yl)-5,6-dihydro-4H-1,2,4-oxadiazine], 12.9 nM.
Still for that read-out and setting: to `COc1cc2c(cc1Cl)c(C1CON=C(c3ccc(-n4cnc(C)c4)c(OC)n3)N1)cn2C` (single isomer, unassigned; (+)) [Example 255B, (+)-5-(5-chloro-6-methoxy-1-methyl-1H-indol-3-yl)-3-(6-methoxy-5-(4-methyl-1H-imidazol-1-yl)pyridin-2-yl)-5,6-dihydro-4H-1,2,4-oxadiazine] belongs 9 nM.
With `COc1nc(C2=NOCC(c3cn(C)c4cc(S(C)(=O)=O)ccc34)N2)ccc1-n1cnc(C)c1` (single isomer, unassigned; (+)) [Example 256B, (+)-3-(6-methoxy-5-(4-methyl-1H-imidazol-1-yl)pyridin-2-yl)-5-(1-methyl-6-(methylsulfonyl)-1H-indol-3-yl)-5,6-dihydro-4H-1,2,4-oxadiazine], a half-maximal effect (EC50) was put at 422 nM.
Same read-out and setting: with `COc1nc(C2=NOCC(c3cn(C)c4cc(F)c(C)cc34)N2)ccc1-n1cnc(C)c1` (single isomer, unassigned; (+)) [Example 257B, (+)-5-(6-fluoro-1,5-dimethyl-1H-indol-3-yl)-3-(6-methoxy-5-(4-methyl-1H-imidazol-1-yl)pyridin-2-yl)-5,6-dihydro-4H-1,2,4-oxadiazine] the figure was 4.9 nM; with `COc1ccc2c(C3CON=C(c4ccc(-n5cnc(C)c5)c(OC)n4)N3)cn(C)c2c1` (single isomer, unassigned; (+)) [Example 258B, (+)-5-(6-methoxy-1-methyl-1H-indol-3-yl)-3-(6-methoxy-5-(4-methyl-1H-imidazol-1-yl)pyridin-2-yl)-5,6-dihydro-4H-1,2,4-oxadiazine], 23.5 nM.
In the case of `COc1nc(C2=NOCC(c3cc4cc(C(F)(F)F)ccc4o3)N2)ccc1-n1cnc(C)c1` (single isomer, unassigned; (+)) [Example 259B, (+)-3-(6-methoxy-5-(4-methyl-1H-imidazol-1-yl)pyridin-2-yl)-5-(5-(trifluoromethyl)benzofuran-2-yl)-5,6-dihydro-4H-1,2,4-oxadiazine], the midpoint of the response, the EC50, lay at 9 nM.
`COc1nc(C2=NOCC(c3cc4ccc(C(F)(F)F)cc4o3)N2)ccc1-n1cnc(C)c1` (single isomer, unassigned; (+)) [Example 260B, (+)-3-(6-methoxy-5-(4-methyl-1H-imidazol-1-yl)pyridin-2-yl)-5-(6-(trifluoromethyl)benzofuran-2-yl)-5,6-dihydro-4H-1,2,4-oxadiazine] had a concentration for a half-maximal effect (EC50) of 4.8 nM.
Still for that read-out and setting: with `COc1nc(C2=NOCC(c3ccc(C(F)(F)F)c(Cl)c3)N2)ccc1-n1cnc(C)c1` (single isomer, unassigned; (+)) [Example 262B, (+)-5-(3-chloro-4-(trifluoromethyl)phenyl)-3-(6-methoxy-5-(4-methyl-1H-imidazol-1-yl)pyridin-2-yl)-5,6-dihydro-4H-1,2,4-oxadiazine] the figure was 10 nM.
